Like-named read-outs stand apart in the source and are kept apart here.
Assays:
AhR [1] = molecular target: T1, AhR (Homo sapiens, UniProt P35869); experiment: Reporter gene assay in AZ-AHR cells, agonist analyses (luciferase)
T1 sequence (P35869 11-848): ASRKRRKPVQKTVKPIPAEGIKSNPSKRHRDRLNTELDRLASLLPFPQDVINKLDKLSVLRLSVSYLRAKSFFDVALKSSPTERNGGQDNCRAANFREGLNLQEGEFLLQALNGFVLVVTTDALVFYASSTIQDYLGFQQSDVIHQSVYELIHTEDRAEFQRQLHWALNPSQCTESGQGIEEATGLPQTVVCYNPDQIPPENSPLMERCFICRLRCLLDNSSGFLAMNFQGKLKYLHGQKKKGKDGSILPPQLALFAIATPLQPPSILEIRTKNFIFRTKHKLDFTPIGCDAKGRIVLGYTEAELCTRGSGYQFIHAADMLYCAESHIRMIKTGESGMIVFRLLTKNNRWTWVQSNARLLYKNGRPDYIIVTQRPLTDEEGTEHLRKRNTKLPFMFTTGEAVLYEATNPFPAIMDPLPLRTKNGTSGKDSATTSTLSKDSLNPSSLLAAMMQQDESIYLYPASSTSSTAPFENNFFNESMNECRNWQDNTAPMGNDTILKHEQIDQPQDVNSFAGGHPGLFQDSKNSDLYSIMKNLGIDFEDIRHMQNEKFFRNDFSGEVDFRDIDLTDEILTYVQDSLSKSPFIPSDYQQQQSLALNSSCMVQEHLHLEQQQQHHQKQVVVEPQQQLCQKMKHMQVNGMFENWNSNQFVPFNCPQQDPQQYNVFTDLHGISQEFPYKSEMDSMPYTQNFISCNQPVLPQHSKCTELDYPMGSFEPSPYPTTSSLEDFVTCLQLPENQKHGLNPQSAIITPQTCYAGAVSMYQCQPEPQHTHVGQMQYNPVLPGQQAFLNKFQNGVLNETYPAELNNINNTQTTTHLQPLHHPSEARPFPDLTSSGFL
Procedure: (§1) In the first series of experiments, we evaluated the agonistic and antagonistic effects of MICT on the AhR activation. […] The antagonistic effects of MICT were evaluated against typical full agonists of the AhR, comprising TCDD, BaP, and FICZ, which were applied at fixed concentrations corresponding to their EC80.
(§2) Following the treatments, we lysed cells, and luciferase activity was measured. Experiments were performed at least in four consecutive cell passages. Incubations were performed in quadruplicates (technical replicates). In agonist analyses, the data from a representative experiment, expressed as a fold induction of luciferase activity over control cells, are shown. In antagonist analyses, the data are a percentage of maximal induction, and they are the mean ± SD.
(§3) Then, cells were lysed, and luciferase activity was measured using the Tecan Infinite M200 plate luminometer (Schoeller Instruments, Czech Republic). The experiments were performed in at least four consecutive cell passages, and the treatments were in quadruplicates (technical replicates). The values of half-maximal effective concentration (EC50) for each MICT, and half-maximal inhibitory concentration (IC50—where appropriate) were calculated.
Supplementary Figure 2. Tryptophan effects in culture medium on AhR activity. (A) Time-course of Trp
levels in culture media from hepatic (AZ-AHR), instestinal (LS174T) and skin (HaCaT) cells. Determined by
HPLC. (B) Induction of AhR-dependent luciferase activity in AZ-AHR cells incubated for 24 h with TCDD,
Indole and Trp in Trp/serum-free culture medium. (C) Induction of AhR-dependent luciferase activity in
AZ-AHR cells incubated for 24 h with TCDD and Indole in standard (+Trp/+FBS), serum-free (+Trp/-FBS),
Trp-free (-Trp/+FBS) and Trp/serum-free (-Trp/-FBS) culture medium. […]

murine AhR = molecular target: T2, murine AhR (Mus musculus, UniProt P30561); experiment: Competitive radio-ligand ([3H]-TCDD) AhR binding assay, cytosols from Hepa1c1c7 cells; settings: data not shown
T2 sequence (P30561 10-805): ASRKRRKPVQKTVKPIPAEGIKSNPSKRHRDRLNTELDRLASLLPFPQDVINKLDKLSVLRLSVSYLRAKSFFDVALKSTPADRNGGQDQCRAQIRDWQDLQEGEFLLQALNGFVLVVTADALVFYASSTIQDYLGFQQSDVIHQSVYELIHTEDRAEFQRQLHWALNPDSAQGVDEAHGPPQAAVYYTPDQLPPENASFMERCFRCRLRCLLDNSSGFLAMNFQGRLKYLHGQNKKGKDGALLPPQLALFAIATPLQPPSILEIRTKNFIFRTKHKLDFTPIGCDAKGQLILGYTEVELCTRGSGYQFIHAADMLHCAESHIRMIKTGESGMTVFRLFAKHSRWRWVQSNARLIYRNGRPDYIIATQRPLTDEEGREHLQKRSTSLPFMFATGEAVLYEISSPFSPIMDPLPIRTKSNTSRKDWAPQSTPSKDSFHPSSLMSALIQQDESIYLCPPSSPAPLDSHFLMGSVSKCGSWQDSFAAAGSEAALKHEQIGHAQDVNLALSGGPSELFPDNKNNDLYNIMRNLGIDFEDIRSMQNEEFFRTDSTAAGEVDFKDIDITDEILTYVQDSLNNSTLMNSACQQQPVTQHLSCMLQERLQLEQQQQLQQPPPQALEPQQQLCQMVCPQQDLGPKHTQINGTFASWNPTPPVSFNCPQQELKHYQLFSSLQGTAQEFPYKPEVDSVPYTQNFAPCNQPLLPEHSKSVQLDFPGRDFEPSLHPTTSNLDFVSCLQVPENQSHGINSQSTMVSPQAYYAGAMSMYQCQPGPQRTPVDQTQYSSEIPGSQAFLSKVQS
Procedure: Figure 2 Competitive radio-ligand binding assay. Cytosols from Hepa1c1c7 cells were incubated with vehicle (negative control; 0.1% V/V), FICZ (positive control; 0.01 nM – 10 nM), TCDF (non-specific binding; 200 nM) and increasing doses of MICT in the presence of 2 nM [^3H]-TCDD. The specific binding of [^3H]-TCDD was determined as a difference between total and non-specific (200 nM; TCDF) reactions (value for vehicle DMSO; 0.1% V/V = corresponds to specific binding of [^3H]-TCDD = 100%). At least two independent experiments were performed and the incubations were done in triplicates in each experiment (technical replicates).
Ligand binding assay was performed using cytosolic protein extracts from murine Hepa1c1c7 cells as described. Briefly, aliquots of protein (2 mg/mL) were incubated at the room temperature for two (2) h with 2 nM [^3H]-TCDD in the presence of DMSO (vehicle control), FICZ (positive control), 200 nM TCDF (non-specific binding) or increasing concentration of MICT. After the incubation, the hydroxyapatite slurry was added to the samples and the suspension was incubated on ice and washed three times with HEGT buffer. The hydroxyapatite pellet was re-suspended in scintillation cocktail, and radioactivity was determined in a liquid scintillation counter. The specific binding of [^3H]-TCDD was determined by subtracting the radioactivity of non-specific reaction (TCDF) from total radioactivity. The values of IC50 were calculated where appropriate.

CYP1A1 mRNA [2] = experiment: CYP1A1 mRNA (qRT-PCR) in intestinal LS180 cells; assay type: cell-based, human; settings: LS180 cells co-incubated with TCDD (10 nM), 24 h
Procedure: (§4) Figure 4 Effects of MICT on the induction of CYP1A1 mRNA in human hepatic and intestinal cells. Cultured cells were incubated for 24 h with the vehicle (DMSO; 0.1% v/v) and tested MICT in the presence or absence of TCDD (10 nM). RT-PCR determined the level of CYP1A1 mRNA, and the data were normalized per GAPDH mRNA level. […] (A,B) Experiments in three consecutive passages of human colon adenocarcinoma cell line LS180 in the absence (A) and the presence (B) of 10 nM TCDD. The bar graphs show the percentage of maximal induction attained by TCDD and are expressed as the mean ± SD. (C) Experiments in three consecutive passages of wild-type (AhR^+/^+) and AhR-knockout (AhR^−/^−) HT-29 cells. […] (D) Primary human hepatocytes from three different donors (LH79, Hep2201020, and Hep2201021).
(§5) Total RNA was isolated using TRI Reagent® (Sigma Aldrich, Prague, Czech Republic). cDNA was synthesized using M-MuLV reverse transcriptase (New England Biolabs, Ipswich, MA, USA). The reverse transcription was performed at 42 °C for 60 min using Random Primers 6 (New England Biolabs, Ipswich, MA, USA) and diluted in a 1:4 ratio by PCR-grade water. The quantitative reverse transcriptase-polymerase chain reaction (qRT-PCR) was performed on the Lightcycler 480 II using the LightCycler ® 480 Probes Master (Roche Diagnostic Corporation, Prague, Czech Republic). The levels of CYP1A1 and GAPDH mRNAs were determined using the Universal Probe Library probes (UPL; Roche Diagnostic Corporation, Prague, Czech Republic) in combination with specific primers, using a protocol described elsewhere. All measurements were performed in triplicates, and the gene expression was normalized to glyceraldehyde-3-phosphate dehydrogenase (GAPDH) as a house-keeping gene. The data were processed using the delta-delta Ct method and expressed as a fold induction over the negative control (DMSO) or as a percentage of the positive control (maximal induction by TCDD).

CYP1A1 mRNA [3] = experiment: Summary of CYP1A1 gene expression in human hepatic and intestinal cells; assay type: cell-based; settings: for induction of CYP1A1 mRNA: 200 µM, LS180 cells, HT-29 cells, and primary human hepatocytes; for Gene Expression: Table 1 summary class, CYP1A1
Procedure: as §4, §5

AhR [4] = test system: AhR; parameters: method as in PMID 27158904; settings: IAA approx. 5000 µM; cited from earlier work
CYP1A1 mRNA [5] = test system: CYP1A1 mRNA; parameters: method as in PMID 24563545; settings: 100 µM IAA, cited from earlier work
mouse AhR = test system: mouse AhR; parameters: method as in PMID 9708986; settings: cited from earlier work
guinea pig AhR = test system: guinea pig AhR; parameters: method as in PMID 9708986; settings: cited from earlier work
AhR [6] = molecular target: T1, AhR; experiment: Reporter gene assay in AZ-AHR cells, antagonist analyses against TCDD, BaP, FICZ
Procedure: as §1
as §2, with “AZ-AHR cells were incubated for 24 h with vehicle (DMSO; 0.1% v/v) and increasing concentrations of MICT, in the absence (agonist analyses) or the presence (antagonist analyses) of TCDD (13.5 nM), BaP (15.8 µM) and FICZ (22.6 µM). Following” for “Following”
as §3, with “AZ-AHR cells were incubated for 24 h with vehicle (DMSO; 0.1% v/v) and increasing concentrations of tested MICT in the presence or absence of TCDD (13.5 nM), FICZ (22.6 µM), or BaP (15.8 µM). Then,” for “Then,”

AhR [7] = test system: AhR; parameters: method as in PMID 26235394; settings: 10 µM IPA, HepG2 cells; cited from earlier work

SMILES | activation of AhR (AhR [1]) | displacement of 3H-TCDD from binding at the murine AhR (murine AhR) | antagonistic effects on CYP1A1 mRNA (CYP1A1 mRNA [2]) | induction of CYP1A1 mRNA (CYP1A1 mRNA [3]) | Gene Expression (CYP1A1 mRNA [3]) | activation of the AhR (AhR [4]) [fold] | induction of CYP1A1 mRNA (CYP1A1 mRNA [5]; Caco-2 and MDA-MB-231 cells) | induction of CYP1A1 mRNA (CYP1A1 mRNA [5]; MDA-MB-468 cells) | concentration at which activation of AhR was described (mouse AhR) [mM] | concentration at which activation of AhR was described (guinea pig AhR) [mM] | activation of AhR (AhR [1]; AZ-AHR cells, 200 µM) | fold induction of luciferase activity (efficacy) (AhR [1]; AZ-AHR cells, 24 h, up to 200 µM (IAC 100 µM, IND 10 mM), plateau not reached) | EC50 (AhR [1]; EC50, AZ-AHR cells, 24 h, agonist analyses) [µM] | Efficacy (EMAX) (AhR [1]; Table 1 summary class) | Potency (EC50) (AhR [1]; Table 1 summary class) | antagonistic effect against full agonists (AhR [6]; AZ-AHR cells, 24 h, TCDD, BaP and FICZ at EC80) | Antagonism (IC50) (AhR [6]; Table 1 summary class) | AhR activation (AhR [7])
N[C@@H](Cc1c[nH]c2ccccc12)C(=O)O [Trp, tryptophan] | did not activate | did not displace | – | – | – | – | – | – | – | – | – | – | – | – | – | – | – | –
O=C(O)Cc1c[nH]c2ccccc12 [IAA, indole-3-acetate] | – | – | to a lesser extent | no induction | inactive | 15 | ≈ 5 fold | not | 2 | 2 | – | – | – | – | – | – | – | –
O=C(O)CCc1c[nH]c2ccccc12 [IPA, indole-3-propionate] | – | – | to a lesser extent | no induction | inactive | – | – | – | – | – | negligible activation | ≈ 8 fold | 98.3 ± 5.72 | low | low | no antagonistic effects | none | no AhR activation
